Assay results as given in US12570667B2, “Compounds with antibacterial and anti viral activities” (priority 2020, dated 2026).
pEC50, pIC50: −log10 of the molar value. ≈ marks a conversion by molar mass, not a printed value. Like-named read-outs stand apart in the source and are kept apart here.

Key:
[1] = tested on: E. coli; assay: Antibacterial activity by spread plate-disc diffusion method; type: cell-based; conditions: 20 μl from 1 mg/ml stock per disc, 37° C., 24 h, "0" indicates no antibacterial activity
Experimental: (§1) In an embodiment, the antibacterial activity of nigericin and compounds of formula I are determined by the Disc diffusion method. […] The compounds of formula I are found to be inhibiting both gram-positive and gram-negative bacteria.
(§2) Nigericin along with compounds of formula I were tested against Gram-positive (S. aureus) and Gram-negative (E. coli) test organisms by spread plate-disc diffusion method. 20 μl from 1 mg/ml concentration stock was used per disc for each test compound and plated were incubated at 37° C. for 24 h. After the incubation period zone of inhibition was measured.

[2] = tested on: S. aureus; assay: as above; type: cell-based; conditions: 20 μl from 1 mg/ml stock per disc, 37° C., 24 h, "0" indicates no antibacterial activity
Experimental: as §1, §2

[3] = tested on: E. coli; assay: Minimum inhibitory concentration by micro-dilution method; type: cell-based; conditions: Gram-negative organism E. coli; for MIC: Escherichia coli
Experimental: (§3) MIC determination: Minimum inhibitory concentration was determined using micro-dilution method in the 96 well plates. 20 μl from 1 mg/ml stock was mixed with culture to get 66 μg/ml concentration and serially diluted in further well to get a concentration of 33 μg/ml, 16.5 μg/ml and so on, refer FIG. 1.

[4] = tested on: S. aureus; assay: as above; type: cell-based; conditions: Staphylococcus aureus; Gram-positive bacteria S. aureus
Experimental: as §3

[5] = In-vitro toxicity, MTT assay; type: cell-based, mouse; conditions: mouse, wild-type mouse embryonic fibroblast cells (WTMEFs), read-out: Cytotoxicity IC50; for IC50 at 2 h: 2 h treatment; for IC50 at 24 h: 24 h treatment
Experimental: (§4) In a preferred embodiment, nigericin and compounds of formula I are tested for toxicity on Wild type mouse fibroblast cell lines using 3-(4,5-dimethylthiazol-2-yl)-2,5-diphenyltetrazolium bromide assay (MTT assay).
(§5) Wild-type mouse fibroblast cell line (WTMEFs) was used to assess the toxicity associated with nigericin and its fluorinated analogues for the viability using 3-(4,5-dimethylthiazol-2-yl)-2,5-diphenyltetrazolium bromide assay (MTT assay). WTMEFs cell line was seeded in 96-well plates at a density of 5000 cells per well in […] DMEM media containing 10% FBS. The cell lines were incubated for 24 h in a CO2 incubator at 37° C. After 24 h, the drug was added at a concentration of […] and incubated for 2 h and 24 h. MTT assay was carried out to verify the cell viability after 2 h and 24 h of drug treatment in respective plates. All drug concentration was used in triplicate (n=3).

[6] = tested on: Wild-type mouse fibroblast cell line (WTMEFs); assay: In-vitro toxicity, MTT assay; type: cell-based; conditions: 24 h treatment, read-out: Cytotoxicity IC50
Experimental: as §4, §5

[7] = tested on: Polio Virus; conditions: read-out: effective concentration (EC50), inhibition of viral RNA synthesis; cited from earlier work

Compound | Antibacterial activity by disc diffusion method (Zone measured in mm) [1] | Antibacterial activity by disc diffusion method (Zone measured in mm) [2] | MIC [3] | MIC [4] | IC50 at 2 h [5] | IC50 at 2 h ([5]; unit mM) | IC50 at 24 h [5] | IC50 at 24 h ([5]; unit mM) | Minimum inhibitory concentration (MIC) [3] | pIC50 [6] | pEC50 [7]
COC1C[C@@H](C[C@H]2CC[C@H](C)C([C@@H](C)C(=O)Oc3ccccc3)O2)O[C@]2(O[C@](C)(C3CC[C@@](C)(C4OC(C5O[C@@](O)(CO)[C@H](C)C[C@@H]5C)C[C@@H]4C)O3)C[C@H]2C)C1C (stereo partly drawn) [Analog N-1, phenyl (2R)-2-((3S,6R)-6-(((2S,4R,5R,7R)-2-((2S,3′S)-5′-((3S,5R,6R)-6-hydroxy-6-(hydroxymethyl)-3,5-dimethyltetrahydro-2H-pyran-2-yl)-2,3′-dimethyloctahydro-[2,2′-bifuran]-5-yl)-9-methoxy-2,4,10-trimethyl-1,6-dioxaspiro[4.5]decan-7-yl)methyl)-3-methyltetrahydro-2H-pyran-2-yl)propanoate] | 0 mm | 0 mm | – | – | – | – | – | – | – | – | –
COc1ccc(OC(=O)[C@H](C)C2O[C@@H](C[C@@H]3CC(OC)C(C)[C@]4(O3)O[C@](C)(C3CC[C@@](C)(C5OC(C6O[C@@](O)(CO)[C@H](C)C[C@@H]6C)C[C@@H]5C)O3)C[C@H]4C)CC[C@@H]2C)cc1 (stereo partly drawn) [Analog N-2] | 0 mm | 0 mm | – | – | – | – | – | – | – | – | –
COC1C[C@@H](C[C@H]2CC[C@H](C)C([C@@H](C)C(=O)Nc3ccccc3F)O2)O[C@]2(O[C@](C)(C3CC[C@@](C)(C4OC(C5O[C@@](O)(CO)[C@H](C)C[C@@H]5C)C[C@@H]4C)O3)C[C@H]2C)C1C (stereo partly drawn) [Analog N-3, (2R)—N-(2-fluorophenyl)-2-((3S,6R)-6-(((2S,4R,5R,7R)-2-((2S,3′S)-5′-((3S,5R,6R)-6-hydroxy-6-(hydroxymethyl)-3,5-dimethyltetrahydro-2H-pyran-2-yl)-2,3′-dimethyloctahydro-[2,2′-bifuran]-5-yl)-9-methoxy-2,4,10-trimethyl-1,6-dioxaspiro[4.5]decan-7-yl)methyl)-3-methyltetrahydro-2H-pyran-2-yl)propanamide] | 33 mm | 31 mm | 0.3 µM (≈ 0.245 µg/mL) | 2.5 µM (≈ 2.05 µg/mL) | > 0.1 mM | > 0.1 mM | 0.0669 mM | 0.0669 mM | – | – | –
COC1C[C@@H](C[C@H]2CC[C@H](C)C([C@@H](C)C(=O)Nc3ccc(F)cc3)O2)O[C@]2(O[C@](C)(C3CC[C@@](C)(C4OC(C5O[C@@](O)(CO)[C@H](C)C[C@@H]5C)C[C@@H]4C)O3)C[C@H]2C)C1C (stereo partly drawn) [Analog N-5] | 30 mm | 23 mm | 0.3 µM (≈ 0.245 µg/mL) | 5 µM (≈ 4.09 µg/mL) | > 0.1 mM | > 0.1 mM | 0.0598 mM | 0.0598 mM | – | – | –
CO[C@@H]1C[C@@H](C[C@H]2CC[C@H](C)[C@H]([C@@H](C)C(=O)O)O2)O[C@]2(O[C@](C)([C@H]3CC[C@@](C)([C@@H]4O[C@@H]([C@H]5O[C@@](O)(CO)[C@H](C)C[C@@H]5C)C[C@@H]4C)O3)C[C@H]2C)[C@@H]1C [Nigericin, reference compound] | 0 mm | 22 mm | – | 0.3 µM (≈ 0.217 µg/mL) | ~0.01 mM | ~0.01 mM | ~0.01 mM | ~0.01 mM | did not show any inhibition | 5.04 | ~6.00
